Settings: in ethanol

solubility (mole fraction) (298.15 K)	solubility (mole fraction) (303.15 K)	solubility (mole fraction) (308.15 K)	solubility (mole fraction) (313.15 K)	solubility (mole fraction) (318.15 K)	Compound
0.00334	0.00342	0.004	0.00441	0.00519	Nc1cc(N)cc(C(=O)O)c1
0.0249	0.0302	0.0358	0.0432	0.0522	CC(=O)Oc1ccc(C(=O)O)cc1
0.0581	0.0693	0.0817	0.0953	0.118	O=C(O)c1ccc(Cl)cc1Cl
0.0214	0.0266	0.0331	0.0353	0.044	N#Cc1ccc(C(=O)O)cc1
0.00493	0.00607	0.00746	0.00934	0.0116	COc1cc(OC)cc(C(=O)O)c1
